SMILES strings stand for the structures. Some results are limits rather than exact numbers.

The experiment concerns the target human 11β-HSD1 (Homo sapiens, UniProt P28845). Kind of experiment: biochemical. The following applies: for inhibition at 0.1 µM: read-out: Average % inhibition at 100 nM; for inhibition at 0.1111 µM: read-out: Average % inhibition at 111.1 nM.

human 11β-HSD1, sequence (P28845 whole entry): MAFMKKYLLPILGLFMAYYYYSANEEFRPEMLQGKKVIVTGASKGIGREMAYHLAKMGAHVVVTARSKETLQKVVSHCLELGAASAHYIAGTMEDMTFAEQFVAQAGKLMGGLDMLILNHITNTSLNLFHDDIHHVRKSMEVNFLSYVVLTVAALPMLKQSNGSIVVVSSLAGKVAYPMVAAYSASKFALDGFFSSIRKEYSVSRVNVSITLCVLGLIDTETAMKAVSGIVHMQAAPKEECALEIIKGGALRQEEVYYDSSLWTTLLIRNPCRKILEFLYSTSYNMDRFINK
Protocol: All reactions were carried out at rt in 96 well clear flexible PET Microbeta plates (PerkinElmer). […] The reaction was stopped by adding 50 μl of the SPA beads suspension containing 10 μM 18β-glycyrrhetinic acid, 5 mg/ml protein A coated YSi SPA beads (GE Healthcare) and 3.3 μg/ml of anti-cortisol antibody (East Coast Biologics) in Superblock buffer (Bio-Rad). The plates were shaken for 120 minutes at rt, and the SPA signal corresponding to [^3H]cortisol was measured on a Microbeta plate reader.

Broadly, the IC50 is the point on the concentration scale where inhibition reaches its midpoint. A higher IC50 goes with a need for much substance. Broadly, the inhibition is the relative decrease from the control value, in per cent. Consider `C[C@@H](c1ccc(-c2ccc(F)cc2F)cc1)N1CCC(c2ccccc2)CC1=O` (mixture of isomers) [Example 5, 1-((1S)-1-(2′,4′-difluorobiphenyl-4-yl)ethyl)-4-phenylpiperidin-2-one], for which the IC50 is < 100 nM and the inhibition at 0.1 µM turned out to be 94.5%.

For the molecule `C[C@@H](c1ccc(Br)cc1)N1CCC(c2ccc(F)cc2)OC1=O` (mixture of isomers) [Example 7, 3-((1S)-1-(4-bromophenyl)ethyl)-6-(4-fluorophenyl)-1,3-oxazinan-2-one], the IC50 was < 100 nM and the inhibition at 0.1 µM stood at 90.1%.

With `O=C1O[C@@H](c2ccccc2)CCN1c1cccc2ccccc12` [Example 3, (R)-3-(naphthalen-1-yl)-6-phenyl-1,3-oxazinan-2-one], the concentration for half-maximal inhibition (IC50) is 100 to 1000 nM and the inhibition at 0.1111 µM was -5.9%.

Take `O=C1OC(c2ccccc2Cl)CCN1c1cccc(Br)c1` (stereo not drawn) [Example 4, 3-(3-bromophenyl)-6-(2-chlorophenyl)-1,3-oxazinan-2-one]: the half-maximal inhibitory concentration (IC50) lay in the range of 100 to 1000 nM and the inhibition at 0.1111 µM worked out at 22.5%.

Turning to `COc1ccc([C@H](C)N2CCC(c3ccc(F)cc3)CC2=O)cc1` (stereo partly drawn) [Example 6, 4(-4-fluorophenyl)-1-((1S)-1-(4-methoxylphenyl)ethyl)piperidin-2-one], the half-maximal inhibitory concentration (IC50) was < 100 nM and the inhibition at 0.1 µM is 89.4%.

Turning to `C[C@@H](c1ccc(Br)cc1)N1CCCC(c2ccccc2)NC1=O` (stereo partly drawn) [Example 8, 1-((S)-1-(4-bromophenyl)ethyl)-4-phenyl-1,3-diazepan-2-one], the half-inhibitory concentration (IC50) is < 100 nM and the inhibition at 0.1 µM was found to be 100%.
